Patent US20120101099A1, “HISTONE DEACETYLASE INHIBITORS” (ANTHEM BIOSCIENCES PRIVATE LIMITED, priority 2009, published 2012)

Assays:
NCI-H460 = experiment: Cell proliferation assay (MTT); assay type: cell-based; conditions: Homo sapiens, Table 1, MTT, 48 hours, read-out: Cell growth inhibition (GI50 in μM) NCI H460
Description: (§1) Cells were seeded in a 96-well cell culture plates at a concentration of 10,000 cells per well and incubated at 37° C. in CO2 incubator.
(§2) Twenty-four hours later cells were treated with different concentrations (100, 10, 1, 0.1, and 0.01 μM) of compound dissolved in DMSO and incubated for 48 hours. For To measurement, 24 hours after seeding the cells, 20 μL of 3-(4.5-dimethyl-2- thiazolyl)-2,5-diphenyl-2H-tetrazolium (MTT) solution per well was added to the T0 plate and incubated for 3 hours at 37° C. in a CO2 incubator.
(§3) The plate containing cells and test compounds was treated similarly after 48 hours of incubation. After 3 hours of MTT addition, well contents were aspirated carefully followed by addition of 100 μL DMSO per well. Plates were agitated to ensure dissolution of the formazan crystals in DMSO and absorbance was read at 570 nm (A570). […] From the percentage growths a dose response curve was generated and GI50 values were interpolated from the growth curves.

HT-29 = experiment: Cell proliferation assay (MTT); assay type: cell-based; conditions: Homo sapiens, HT-29; Table 1; MTT, 48 hours; read-out: Cell growth inhibition (GI50 in μM) HT-29
Description: as §1, §2, §3

[1] = test system: human HDAC (Hela cells nuclear extract); experiment: HDAC activity screening, Hela nuclear extract, Boc-Lys(Ac)-AMC substrate; assay type: biochemical; conditions: Hela nuclear extract; for HDAC % Inhibition (1 μM): 1 μM compound; for HDAC % Inhibition (10 μM): 10 μM compound; for IC50: read-out: IC50 (50% HDAC inhibitory concentration), Table 2
Description: To study the human HDAC inhibition the in-house 96 well plate assay have been established using fluorescent substrate (Boc-Lys (Ac)-AMC Substrate). Hela cells nuclear extract have been used as enzyme source.
Assay was performed in 96-well black microplate and total volume of the assay was 100 μL. Hela nuclear extract was diluted HDAC assay buffer (final concentration of 3.0 μg/mL). Enzyme mixture was made of 10 μL of diluted enzyme and 30 μL of HDAC buffer. 40 μl of enzyme mixture followed by 10 μL of test compound (final concentration from 0.01 to 10 μM) or vehicle (control) was added to each well. The plate was pre-incubated at 37° C. for 10 minutes. The HDAC reaction was started by adding 50 μl of HDAC substrate Boc-Lys (Ac)-AMC (Anaspec, Inc Fremont, Calif., USA). The plate was incubated at 37° C. for 45 minutes. The reaction was stopped by adding 50 μL of Trypsin stop solution and plate further incubated at 37° C. for 15 minutes. Measuring the fluorescence at excitation wavelength of 360 nm and emission wavelength of 460 nm monitored the release of AMC. Buffer alone and substrate alone served as blank.

PC-3 = experiment: Cell proliferation assay (MTT); assay type: cell-based; conditions: Homo sapiens, PC-3; Table 1; MTT, 48 hours; read-out: Cell growth inhibition (GI50 in μM) PC-3
Description: as §1, §2, §3

PA-1 = experiment: Cell proliferation assay (MTT); assay type: cell-based; conditions: Homo sapiens, Table 1, MTT, 48 hours, read-out: Cell growth inhibition (GI50 in μM) PA-1
Description: as §1, §2, §3

Structure (SMILES)	GI50 (HT-29)	GI50 (PC-3)	IC50 [1]	GI50 (NCI-H460)	HDAC % Inhibition (1 μM) [1]	HDAC % Inhibition (10 μM) [1]	GI50 (PA-1)
O=C(NO)c1ccc(CNS(=O)(=O)Cn2cc(-c3ccc(F)cc3)nn2)cc1 [Example 29, 4-{[4-(4-Fluoro-phenyl)-[1,2,3]triazol-1-ylmethanesulfonylamino)-methyl}-N-hydroxy-benzamide]	–	–	–	–	87%	98%	–
O=C(/C=C/c1cccc(Cn2cc(-c3cccnc3)nn2)c1)NO [Example 24, N-Hydroxy-3-[3-(4-pyridin-3-yl-[1,2,3]triazol-1-ylmethyl)-phenyl]-acrylamide]	0.48 µM	–	–	10.7 µM	96%	101%	–
Cc1ccc(-c2cn(CS(=O)(=O)NCc3ccc(C(=O)NO)cc3)nn2)cc1 [Example 28]	–	–	–	–	84%	96%	–
COc1ccc(-c2cn(CS(=O)(=O)NCc3ccc(C(=O)NO)cc3)nn2)cc1 [Example 32, N-Hydroxy-4-{[4-(4-methoxy-phenyl)-[1,2,3]triazol-1-ylmethanesulfonylamino]-methyl}-benzamide]	–	–	–	–	79%	91%	–
O=C(NO)c1ccc(Cn2cc(-c3ccc(CN4CCCC4)cc3F)nn2)cc1 [Example 14, 4-[4-(2-Fluoro-4-pyrrolidin-l-ylmethyl-phenyl)-[1,2,3]triazol-1-ylmethyl]-N-hydroxy-benzamide]	–	–	13.4 nM	–	–	–	–
O=C(/C=C/c1cccc(CNS(=O)(=O)Cn2cc(-c3ccccc3)nn2)c1)NO [Example 35, N-Hydroxy-3-{3-[(4-phenyl-[1,2,3]triazol-1-ylmethanesulfonylamino)-methyl]-phenyl}-acrylamide]	19.3 µM	47.7 µM	–	20.4 µM	67%	92%	–
CN(C)c1ccc(-c2cn(CS(=O)(=O)NCc3ccc(C(=O)NO)cc3)nn2)cc1 [Example 31, 4-{[4-(4-Dimethylamino-phenyl)-[1,2,3]triazol-1-ylmethanesulfonylamino]-methyl}-N-hydroxy-benzamide]	–	–	–	–	85%	97%	–
O=C(NO)c1ccc(CNS(=O)(=O)Cn2cc(-c3cccnc3)nn2)cc1 [Example 33, N-Hydroxy-4-[(4-pyridin-3-yl-[1,2,3]triazol-1-ylmethanesulfonylamino)-methyl]-benzamide]	–	–	–	–	63%	92%	–
O=C(NO)c1ccc(CNS(=O)(=O)Cn2cc(-c3ccccc3F)nn2)cc1 [Example 30, 4-{[4-(2-Fluoro-phenyl)-[1,2,3]triazol-1-ylmethanesulfonylamino]-methyl}-N-hydroxy-benzamide]	–	–	–	–	92%	99%	–
O=C(/C=C/c1cccc(Cn2cc(-c3ccccc3)nn2)c1)NO [Example 22, (E)-N-Hydroxy-3-[3-(4-phenyl-[1,2, 3]triazol-1-ylmethyl)-phenyl]-acrylamide]	0.5 ± 0.4 µM	0.6 ± 0.6 µM	–	0.1 ± 0.2 µM	92%	96%	0.01 µM

Now from value to compound, other results behind:

GI50 (HT-29)	GI50 (PC-3)	IC50 [1]	Structure (SMILES)	GI50 (NCI-H460)	HDAC % Inhibition (1 μM) [1]	HDAC % Inhibition (10 μM) [1]	GI50 (PA-1)
0.2 µM	–	–	O=C(/C=C/c1ccc(Cn2cc(-c3ccccc3)nn2)cc1)NO [Example 19]	3.38 µM	98%	101%	–
> 100 µM	–	–	O=C(/C=C/c1ccc(Cn2cc(-c3ccc(F)cc3)nn2)cc1)NO [Example 18]	2.21 µM	98%	100%	–
16.3 µM	> 100 µM	–	O=C(NO)c1ccc(Cn2cc(-c3ccc(-c4ccccc4)cc3)nn2)cc1 [Example 6, 4-(4-Biphenyl-4-yl-[1,2,3]triazol-1-ylmethyl)-N-hydroxy-benzamide]	> 100 µM	75%	87%	–
0.9 ± 0.8 µM	2.4 ± 2.5 µM	–	CN(C)c1ccc(-c2cn(Cc3ccc(C(=O)NO)cc3)nn2)cc1 [Example 1]	1 ± 0.2 µM	92%	94%	0.01 µM
1.9 ± 1.8 µM	1.7 ± 1.1 µM	–	O=C(NO)c1ccc(Cn2cc(-c3ccccc3)nn2)cc1 [Example 2, N-Hydroxy-4-(4-phenyl-[1,2,3]triazol-1-ylmethyl)-benzamide]	2.6 ± 2 µM	98%	100%	0.11 µM
–	–	7.33 nM	O=C(NO)c1ccc(Cn2cc(-c3ccc(CN4CCOCC4)cc3F)nn2)cc1 [Example 15, 4-[4-(2-Fluoro-4-morpholin-4-ylmethyl-phenyl)-[1,2,3]triazol-1-ylmethyl]-N-hydroxy-benzamide]	–	–	–	–
0.2 µM	12.2 µM	–	CN(C)c1ccc(-c2cn(Cc3cccc(/C=C/C(=O)NO)c3)nn2)cc1 [Example 23, (E)-3-{3-[4-(4-Dimethylamino-phenyl)-[1,2,3]triazol-1-ylmethyl]-phenyl}-N-hydroxy-acrylamide]	0.3 µM	96%	99%	–
1.4 ± 0.5 µM	2.6 ± 1.2 µM	–	COc1ccc(-c2cn(Cc3ccc(C(=O)NO)cc3)nn2)cc1 [Example 7, N-Hydroxy-4-[4-(4-methoxy-phenyl)-[1,2,3]triazol-1-ylmethyl]-benzamide]	3.1 ± 1.7 µM	90%	94%	–
13.3 ± 2.9 µM	9.2 ± 9.5 µM	–	O=C(NO)c1ccc(Cn2cc(-c3cccnc3)nn2)cc1 [Example 5, N-Hydroxy-4-(4-pyridin-3-yl-[1,2,3]triazol-1-ylmethyl)-benzamide]	19 ± 1 µM	68%	88%	–
–	–	12.8 nM	O=C(NO)c1ccc(Cn2cc(-c3ccc(CCN4CCOCC4)cc3)nn2)cc1 [Example 12, N-Hydroxy-4-{4-[4-(2-morpholin-4-yl-ethyl)-phenyl]-[1,2,3]triazol-1-ylmethyl}-benzamide]	–	–	–	–
5.2 ± 3.5 µM	3.4 ± 0.4 µM	–	O=C(NO)c1ccc(Cn2cc(-c3ccc(F)cc3)nn2)cc1 [Example 3, 4-[4-(4-Fluoro-phenyl)-[1,2,3]triazol-1-ylmethyl]-N-hydroxy-benzamide]	6.5 ± 4.2 µM	84%	96%	–
2.4 ± 0.5 µM	4.6 ± 1.6 µM	–	O=C(NO)c1ccc(Cn2cc(-c3ccccc3F)nn2)cc1 [Example 4, 4-[4-(2-Fluoro-phenyl)-[1,2,3]triazol-1-ylmethyl]-N-hydroxy-benzamide]	3.2 ± 1.1 µM	88%	94%	–
0.38 ± 0.12 µM	4.4 µM	–	CN(C)c1ccc(-c2cn(Cc3ccc(/C=C/C(=O)NO)cc3)nn2)cc1 [Example 17]	7.06 ± 6.98 µM	93%	99%	–
23.8 µM	23.3 µM	–	O=C(NO)c1ccc(CNS(=O)(=O)Cn2cc(-c3ccccc3)nn2)cc1 [Example 34]	19.9 µM	91%	99%	–
